# Positions count from the first letter of the chain named.
# How the values were obtained:
# 5-HT1DR = 5-HT1DR (Homo sapiens, UniProt P28221); assay: BRET Gαi1 activation
# adrenergic α2A = adrenergic α2A (Homo sapiens, UniProt P08913); assay: Radioligand displacement, [3H]RX821002
# [1] = target: T1, 5-HT1AR F112^3.28W + M92^2.60F (Homo sapiens, UniProt P08908, F112W/M92F); assay: Radioligand competition, displacement of [3H]WAY100635; type: binding; conditions: 5-HT1AR F112W + M92F; HEK 293T membranes; read-out: Ki [nM ± SEM]
# T1 sequence (P08908 1-422 M92F/F112W): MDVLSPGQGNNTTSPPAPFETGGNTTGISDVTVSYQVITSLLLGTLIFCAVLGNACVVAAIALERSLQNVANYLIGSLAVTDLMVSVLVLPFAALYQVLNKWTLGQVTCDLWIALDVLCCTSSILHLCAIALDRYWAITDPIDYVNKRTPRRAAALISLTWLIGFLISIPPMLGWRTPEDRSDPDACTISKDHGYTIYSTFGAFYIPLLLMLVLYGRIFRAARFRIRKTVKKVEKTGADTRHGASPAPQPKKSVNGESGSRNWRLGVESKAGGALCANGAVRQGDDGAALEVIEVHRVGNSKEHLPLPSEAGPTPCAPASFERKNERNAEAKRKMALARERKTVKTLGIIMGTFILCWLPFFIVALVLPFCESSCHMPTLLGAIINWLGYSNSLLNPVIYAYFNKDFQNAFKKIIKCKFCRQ
# orexin OX2 = orexin OX2 (Homo sapiens, UniProt O43614); assay: Radioligand displacement, [3H]EMPA
# opioid µOR = opioid µOR (Homo sapiens, UniProt P35372); assay: Radioligand displacement, [3H]diprenorphine
# muscarinic M3 = muscarinic M3 (Homo sapiens, UniProt P20309); assay: Radioligand displacement, [3H]NMS
# [2] = Metabolic stability with rat liver microsomes; type: in vitro ADME
# 5-HT1AR [3] = target: T2, 5-HT1AR (Homo sapiens, UniProt P08908); assay: IP-One accumulation with hybrid Gαqi in HEK293T; type: cell-based; set-up: host or cells: HEK293T, HEK293A, HEK293AΔGs, HEK293AΔGi/o, HEK293AΔARRB1/B2
# T2 sequence (P08908 1-422): T1 sequence (P08908 1-422 M92F/F112W) with F92M, W112F
# dopamine D1 = dopamine D1 (Homo sapiens, UniProt P21728); assay: Radioligand displacement, [3H]SCH23390
# adrenergic β1 = adrenergic β1 (Homo sapiens, UniProt P08588); assay: Radioligand displacement, [3H]CGP12177
# 5-HT1AR + Gαi1 [4] = target: 5-HT1AR + Gαi1 (Homo sapiens, UniProt P08908)
# 5-HT1AR + Gαi1 [5] = test system: 5-HT1AR + Gαi1
# muscarinic M2 = muscarinic M2 (Homo sapiens, UniProt P08172); assay: Radioligand displacement, [3H]NMS
# 5-HT1AR [6] = target: T2, 5-HT1AR; type: cell-based; set-up: host or cells: HEK293T, HEK293A, HEK293AΔGs, HEK293AΔGi/o, HEK293AΔARRB1/B2; conditions: HEK293AΔGi/o, GloSensor
# [7] = In vivo pharmacokinetic studies; conditions: mouse, CSF, ip; male C57BL/6 mice, 10 mg/kg i.p.
# 5-HT1AR [8] = target: T2, 5-HT1AR; assay: β-arrestin 1 recruitment, enhanced bystander BRET in HEK293T with GRK2; conditions: HEK-293T, read-out: Emax, β-arrestin 1 recruitment
# adrenergic α2C = adrenergic α2C (Homo sapiens, UniProt P18825); assay: Radioligand displacement, [3H]RX821002
# 5-HT1AR [9] = target: T2, 5-HT1AR; assay: High-throughput screening with radioligand displacement, single point; type: binding; set-up: host or cells: HEK293T, transient; membranes; conditions: compound at 10 nM
# α2BR = α2BR (Homo sapiens, UniProt P18089); assay: BRET Gαi1 activation
# α2AR = α2AR (Homo sapiens, UniProt P08913); assay: BRET Gαi1 activation
# α2AR, sequence (P08913 whole entry): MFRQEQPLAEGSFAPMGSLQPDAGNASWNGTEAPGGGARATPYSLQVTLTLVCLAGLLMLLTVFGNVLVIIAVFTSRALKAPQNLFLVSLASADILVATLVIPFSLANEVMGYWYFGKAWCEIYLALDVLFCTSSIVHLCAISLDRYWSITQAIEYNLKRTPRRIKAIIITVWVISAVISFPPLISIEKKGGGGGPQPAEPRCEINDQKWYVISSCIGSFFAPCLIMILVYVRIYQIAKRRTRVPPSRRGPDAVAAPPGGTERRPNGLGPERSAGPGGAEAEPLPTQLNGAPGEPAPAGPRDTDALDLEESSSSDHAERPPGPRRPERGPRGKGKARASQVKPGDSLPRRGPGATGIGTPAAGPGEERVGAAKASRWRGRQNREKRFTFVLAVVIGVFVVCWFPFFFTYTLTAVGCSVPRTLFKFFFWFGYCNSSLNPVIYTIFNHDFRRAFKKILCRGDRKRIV
# opioid µOR, sequence (P35372 whole entry): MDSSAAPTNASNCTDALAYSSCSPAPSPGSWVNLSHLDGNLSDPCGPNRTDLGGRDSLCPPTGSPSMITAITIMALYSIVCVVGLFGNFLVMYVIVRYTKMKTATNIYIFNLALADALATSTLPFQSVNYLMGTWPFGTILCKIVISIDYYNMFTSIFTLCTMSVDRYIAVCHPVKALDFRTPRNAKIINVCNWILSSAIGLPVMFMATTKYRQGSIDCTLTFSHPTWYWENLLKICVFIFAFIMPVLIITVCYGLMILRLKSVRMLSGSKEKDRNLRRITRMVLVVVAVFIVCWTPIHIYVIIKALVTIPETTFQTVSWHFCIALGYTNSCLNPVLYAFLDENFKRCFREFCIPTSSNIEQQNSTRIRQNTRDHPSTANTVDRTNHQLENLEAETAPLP
# muscarinic M2, sequence (P08172 whole entry): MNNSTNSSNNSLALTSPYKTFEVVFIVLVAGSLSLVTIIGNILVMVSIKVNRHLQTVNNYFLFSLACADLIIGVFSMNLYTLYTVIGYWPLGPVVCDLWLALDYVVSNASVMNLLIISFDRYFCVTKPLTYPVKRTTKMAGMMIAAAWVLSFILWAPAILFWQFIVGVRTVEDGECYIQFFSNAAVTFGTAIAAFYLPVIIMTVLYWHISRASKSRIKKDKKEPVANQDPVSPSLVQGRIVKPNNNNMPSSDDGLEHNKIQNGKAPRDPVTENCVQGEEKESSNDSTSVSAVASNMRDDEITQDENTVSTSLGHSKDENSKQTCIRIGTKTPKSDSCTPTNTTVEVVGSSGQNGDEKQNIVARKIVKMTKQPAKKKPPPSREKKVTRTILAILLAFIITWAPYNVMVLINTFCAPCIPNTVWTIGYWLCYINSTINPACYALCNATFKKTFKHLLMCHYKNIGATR
# dopamine D1, sequence (P21728 whole entry): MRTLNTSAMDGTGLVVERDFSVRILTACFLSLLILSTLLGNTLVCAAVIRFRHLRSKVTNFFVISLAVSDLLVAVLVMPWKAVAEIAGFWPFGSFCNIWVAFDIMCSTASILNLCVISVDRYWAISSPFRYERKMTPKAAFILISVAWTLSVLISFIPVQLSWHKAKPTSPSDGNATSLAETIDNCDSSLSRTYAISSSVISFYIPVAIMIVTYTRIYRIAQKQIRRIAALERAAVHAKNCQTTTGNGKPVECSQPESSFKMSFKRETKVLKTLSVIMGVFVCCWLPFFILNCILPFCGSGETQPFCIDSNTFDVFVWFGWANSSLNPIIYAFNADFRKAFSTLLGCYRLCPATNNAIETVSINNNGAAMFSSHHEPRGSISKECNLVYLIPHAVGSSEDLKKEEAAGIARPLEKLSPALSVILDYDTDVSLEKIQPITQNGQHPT
# orexin OX2, sequence (O43614 whole entry): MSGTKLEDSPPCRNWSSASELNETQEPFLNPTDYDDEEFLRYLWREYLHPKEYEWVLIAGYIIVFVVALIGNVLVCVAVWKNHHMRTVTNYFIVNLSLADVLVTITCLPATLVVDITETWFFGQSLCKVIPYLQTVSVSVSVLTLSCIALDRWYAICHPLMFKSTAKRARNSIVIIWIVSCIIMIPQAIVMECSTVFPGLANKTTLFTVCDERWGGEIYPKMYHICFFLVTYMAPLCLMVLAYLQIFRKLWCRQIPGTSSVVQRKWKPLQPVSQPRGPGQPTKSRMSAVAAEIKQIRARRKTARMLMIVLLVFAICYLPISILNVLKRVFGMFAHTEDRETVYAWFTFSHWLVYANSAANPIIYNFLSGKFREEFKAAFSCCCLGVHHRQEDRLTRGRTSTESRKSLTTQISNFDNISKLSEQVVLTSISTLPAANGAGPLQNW
# adrenergic β1, sequence (P08588 whole entry): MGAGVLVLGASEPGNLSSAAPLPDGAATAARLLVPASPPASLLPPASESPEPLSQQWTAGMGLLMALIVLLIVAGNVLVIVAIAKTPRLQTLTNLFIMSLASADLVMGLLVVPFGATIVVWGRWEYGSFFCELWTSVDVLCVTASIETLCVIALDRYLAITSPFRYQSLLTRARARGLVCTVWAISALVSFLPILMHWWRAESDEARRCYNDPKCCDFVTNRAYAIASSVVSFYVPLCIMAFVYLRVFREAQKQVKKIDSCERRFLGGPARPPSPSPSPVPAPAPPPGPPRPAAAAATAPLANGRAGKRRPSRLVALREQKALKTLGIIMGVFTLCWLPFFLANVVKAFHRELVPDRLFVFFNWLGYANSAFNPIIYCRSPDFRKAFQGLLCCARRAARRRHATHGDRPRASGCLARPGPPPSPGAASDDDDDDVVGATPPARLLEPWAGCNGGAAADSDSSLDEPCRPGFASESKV
# adrenergic α2C, sequence (P18825 whole entry): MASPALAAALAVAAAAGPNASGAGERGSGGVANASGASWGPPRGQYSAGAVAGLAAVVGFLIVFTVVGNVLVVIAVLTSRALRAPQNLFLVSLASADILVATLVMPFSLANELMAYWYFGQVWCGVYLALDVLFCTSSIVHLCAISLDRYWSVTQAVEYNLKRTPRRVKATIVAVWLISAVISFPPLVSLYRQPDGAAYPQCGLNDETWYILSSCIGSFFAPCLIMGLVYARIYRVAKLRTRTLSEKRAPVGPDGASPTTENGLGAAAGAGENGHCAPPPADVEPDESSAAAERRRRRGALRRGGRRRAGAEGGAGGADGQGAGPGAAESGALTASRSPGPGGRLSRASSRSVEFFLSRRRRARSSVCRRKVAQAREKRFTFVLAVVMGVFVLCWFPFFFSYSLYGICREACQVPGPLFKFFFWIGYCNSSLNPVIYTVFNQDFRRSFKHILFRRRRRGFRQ
# adrenergic α2A, sequence (P08913 whole entry): as the sequence (P08913 whole entry) above
# 5-HT1DR, sequence (P28221 whole entry): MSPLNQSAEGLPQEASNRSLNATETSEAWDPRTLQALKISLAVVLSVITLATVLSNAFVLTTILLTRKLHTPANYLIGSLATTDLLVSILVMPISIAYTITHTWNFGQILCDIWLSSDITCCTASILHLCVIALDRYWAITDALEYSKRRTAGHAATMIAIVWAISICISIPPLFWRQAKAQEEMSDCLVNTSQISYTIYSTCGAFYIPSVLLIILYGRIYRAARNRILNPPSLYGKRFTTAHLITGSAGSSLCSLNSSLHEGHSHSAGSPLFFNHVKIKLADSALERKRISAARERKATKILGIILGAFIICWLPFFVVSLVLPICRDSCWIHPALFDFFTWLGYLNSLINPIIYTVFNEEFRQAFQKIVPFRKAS
# muscarinic M3, sequence (P20309 whole entry): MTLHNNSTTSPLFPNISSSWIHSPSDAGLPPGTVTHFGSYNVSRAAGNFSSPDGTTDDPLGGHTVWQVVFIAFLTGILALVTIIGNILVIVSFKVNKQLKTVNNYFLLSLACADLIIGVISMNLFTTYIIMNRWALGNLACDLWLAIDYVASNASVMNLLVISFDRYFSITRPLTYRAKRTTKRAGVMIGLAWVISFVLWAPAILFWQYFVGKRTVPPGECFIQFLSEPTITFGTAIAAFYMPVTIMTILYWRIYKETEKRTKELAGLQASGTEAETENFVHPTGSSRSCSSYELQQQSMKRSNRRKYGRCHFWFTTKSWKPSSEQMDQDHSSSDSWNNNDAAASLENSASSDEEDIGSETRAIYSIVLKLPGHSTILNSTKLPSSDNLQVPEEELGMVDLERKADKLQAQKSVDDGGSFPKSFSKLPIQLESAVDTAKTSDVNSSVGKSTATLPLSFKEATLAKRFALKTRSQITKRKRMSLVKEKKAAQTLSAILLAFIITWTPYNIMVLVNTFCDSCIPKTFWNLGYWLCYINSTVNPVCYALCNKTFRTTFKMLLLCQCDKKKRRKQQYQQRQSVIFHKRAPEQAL
# α2BR, sequence (P18089 whole entry): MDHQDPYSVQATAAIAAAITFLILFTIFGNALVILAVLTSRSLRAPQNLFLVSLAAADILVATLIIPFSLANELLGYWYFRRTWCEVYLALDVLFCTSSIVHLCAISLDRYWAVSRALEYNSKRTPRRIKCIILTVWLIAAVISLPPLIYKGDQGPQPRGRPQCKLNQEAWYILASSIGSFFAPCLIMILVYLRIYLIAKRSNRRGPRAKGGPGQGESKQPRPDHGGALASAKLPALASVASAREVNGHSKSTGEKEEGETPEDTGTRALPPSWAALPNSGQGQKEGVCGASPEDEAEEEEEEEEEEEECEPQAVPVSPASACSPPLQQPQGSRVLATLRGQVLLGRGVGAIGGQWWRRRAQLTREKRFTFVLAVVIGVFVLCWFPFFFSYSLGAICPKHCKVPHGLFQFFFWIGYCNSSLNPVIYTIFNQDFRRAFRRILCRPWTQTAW
structure (smiles),measurement,setting,value
COc1ccccc1OCCNCCCOc1ccc2c(c1)NC(=O)CO2 [ST171],EC50,5-HT1DR,5.7 nM
same,Emax,5-HT1DR,54%
same,Ki,adrenergic α2A; Ki [nM ± SD],260 nM
same,Ki,adrenergic α2A; pKi,204 nM
same,Ki,[1],0.044 nM
same,Ki,orexin OX2; Ki [nM ± SD],> 50000 nM
same,Ki,orexin OX2; pKi,> 50100 nM
same,Ki,"opioid µOR; Ki [nM ± SD], µOR",8600 ± 2100 nM
same,Ki,"opioid µOR; Ki, opioid receptor family",> 5000 nM
same,Ki,"opioid µOR; pKi, µOR",8430 nM
same,Ki,muscarinic M3; Ki [nM ± SD],49000 ± 28000 nM
same,Ki,muscarinic M3; pKi,41500 nM
same,intact substrate remaining,[2]; after 1 h incubation,more than 70%
same,intact substrate remaining,[2]; after 3 h incubation,> 45%
same,Emax,"5-HT1AR [3]; HEK-293T, read-out: Emax[Gqi], IP accumulation",43%
same,EC50,"5-HT1AR [3]; hybrid Gαqi, HEK293T, read-out: EC50[Gqi], IP accumulation",13 ± 2.9 nM
same,Ki,dopamine D1; Ki [nM ± SD],260 ± 170 nM
same,Ki,dopamine D1; pKi,209 nM
same,Ki,adrenergic β1; Ki [nM ± SD],1700 ± 350 nM
same,Ki,adrenergic β1; pKi,1630 nM
same,Emax,5-HT1AR + Gαi1 [4],68 ± 3%
same,Emax,5-HT1AR + Gαi1 [5],57 to 80%
same,Ki,muscarinic M2; Ki [nM ± SD],18000 ± 9200 nM
same,Ki,muscarinic M2; pKi,16300 nM
same,IC50,5-HT1AR [6],3.9 ± 0.8 nM
same,Cmax,[7],~40 nM
same,Emax,5-HT1AR [8],< 5%
same,Ki,adrenergic α2C; Ki [nM ± SD],28 ± 12 nM
same,Ki,adrenergic α2C; pKi,25.9 nM
same,"displacement of the radiolabeled ligand [3H]WAY100,635",5-HT1AR [9],more than 80%
same,intrinsic activity,α2BR,devoid of intrinsic activity
same,intrinsic activity,α2AR,devoid of intrinsic activity

# From PMC12175894 (Science Advances, 2025)
